Data as given in PubChem BioAssay AID493130 (Broad Institute, 2011).
Records with an inconclusive call do not appear. The source made the active and inactive calls.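 How the source made its calls: active means signal-lowering compounds whose fitted half-maximal concentration is at most ten times their highest tested dose; inconclusive means flat fit between -30 and -70%, or poor fit; inactive means flat within 30%, signal rising, or potency beyond limit.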

These compounds were tested against POS-1 (Caenorhabditis elegans) binding to mex-3 RNA (assay: inhibitors of POS-1/mex-3 RNA binding, dose response, counter-screen for MEX-5 RNA-binding inhibitor project, biochemical, fluorescence polarization, cherry-picked samples, set 2 (AID 493130;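 further: POS-1 as maltose binding protein fusion made in E. coli with FITC RNA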)). Settings: POS-1/mex-3 RNA fluorescence polarization, 1 h.
Work on CCN(CC)c1ccc(/C=C(/C#N)c2nc3ccc(C)cc3[nH]2)c(OC(C)C)c1 yielded an AC50 of 1.61 µM.
With O=C(NNC(=O)c1ccccc1O)c1ccc(S(=O)(=O)Nc2ccccc2)cc1 the AC50 was 4.17 µM.
Compound CCOC(=O)C1=C(CSc2nc3c(cc2C#N)CN(C)CC3)OC(N)=C(C#N)C1c1ccncc1 (stereo not given) has an AC50 of 7.33 µM.
Compound Cc1ccc(C(=O)NNC(=O)c2ccc3ccccc3c2O)cc1 has an AC50 of 7.78 µM.
With CN1Cc2sc(N)c(C#N)c2CC1(C)C the AC50 was 9.75 µM.
Work on Cc1occc1C(=O)N/N=C/C1=C(N2CCOCC2)C(=C\c2ccc(Cl)cc2Cl)/CC1 yielded an AC50 of 8.21 µM.
N#CC1(C#N)C(c2ccccc2)OC23CCCCC2C1(C#N)C(=N)O3 (stereo not given) was tested, and the AC50 was 4.61 µM.
With O=c1[nH]c(-[n+]2ccccc2)c(/C=N/NC([S-])=Nc2ccccc2)s1 the AC50 was 5.9 µM.
COC(=O)C1=COC(C)C2CN3CCc4c([nH]c5ccccc45)C3CC12 (stereo not given) was tested, and the AC50 was 7.17 µM.
Work on CCN1/C(=C2\SC(=S)N(Cc3ccccc3)C2=O)Sc2ccccc21 yielded an AC50 of 1.6 µM.
CC1(C)CC(=O)C2=C(C1)N=c1s/c(=C/c3ccc(F)c(F)c3)c(=O)n1C2c1ccc(F)cc1 (stereo not given) was tested, and the AC50 was > 10 µM (inactive).
With Cc1ccc(NC(=O)/C(C#N)=C(\N)C(Cl)(Cl)Cl)nc1 the AC50 was 6.68 µM.
With COCC1CCN(Cc2c(C(=O)N3CCc4ccccc4C3)nc3ccc(Cl)cn23)C1 (stereo not given) the AC50 was > 10 µM (inactive).

Same assay, conditions: POS-1/mex-3 RNA fluorescence polarization, 1 h; at 10 µM (top of the series)
With Cc1cc2ccccc2n1CCNC(=O)c1ccc(Br)o1 the “activity change, negative = inhibition” value was “inactive”.
In the case of COc1ccc(N(C(=O)CCl)C(C)(C(=O)Nc2c(C)cccc2C)c2ccccn2)cc1 (stereo not given), the “activity change, negative = inhibition” value is reported as “inactive”.
With COc1ccc(NCc2n[nH]c(=O)c3ccccc23)cc1 the “activity change, negative = inhibition” value was “inactive”.
With CCOc1ccc(/C=C2\SC(=S)N(Nc3ccccc3)C2=O)cc1OC the “activity change, negative = inhibition” value was “inactive”.
In the case of COC(=O)c1ccc(N2NC(=O)/C(=C/c3ccc(-c4ccc(Cl)c(C(=O)O)c4)o3)C2=O)cc1, the “activity change, negative = inhibition” value is reported as “inactive”.
COc1ccc(/C=C/C(=O)c2cc(Cl)cc(Cl)c2O)c(OC)c1 was tested, and the “activity change, negative = inhibition” value was “inactive”.
In the case of Cc1ccc(C(=O)N/N=C\c2cc(Br)c(Br)o2)cn1, the “activity change, negative = inhibition” value is reported as “inactive”.
O=C(Nc1nccs1)c1ccc(-c2ccc(Cl)cc2)o1 was tested, and the “activity change, negative = inhibition” value was “inactive”.
With COc1ccccc1N1C(=O)C2C(C(=O)c3ccccc3)=NN(c3ccccc3OC)C2C1=O (stereo not given) the “activity change, negative = inhibition” value was “inactive”.
For CN(N)N=Nc1nc2c([nH]1)c(=O)n(C)c(=O)n2C, the “activity change, negative = inhibition” value was “inactive”.
CC(C)CNC(=O)c1ccccc1Oc1ccccc1 was tested, and the “activity change, negative = inhibition” value was “inactive”.
With C#CCN1C(=O)S/C(=C\c2ccc(N3CCOCC3)cc2C)C1=O the “activity change, negative = inhibition” value was “inactive”.
With O=Nc1[nH]c(=O)c(/C=C(\O)c2ccccc2)nc1NO the “activity change, negative = inhibition” value was “inactive”.
CCCc1nc2c(=O)n(C)c(=O)[nH]c2n1C was tested, and the “activity change, negative = inhibition” value was “inactive”.
With O=C(O)c1ccccc1N=Nc1c(O)[nH]c2ccc([N+](=O)[O-])cc12 the “activity change, negative = inhibition” value was “inactive”.
Oc1sc(C=Nc2ccc(F)cc2)c2ccccc12 was tested, and the “activity change, negative = inhibition” value was “inactive”.
In the case of O=C(NNc1ccccc1)C(=O)NNS(=O)(=O)c1ccc(CCCl)cc1, the “activity change, negative = inhibition” value is reported as “inactive”.
CC(=O)CCS(=O)(=O)c1ccc(Oc2ccc(S(=O)(=O)CCC(C)=O)cc2)cc1 was tested, and the “activity change, negative = inhibition” value was “inactive”.
In the case of O=C(O)c1ccc(NC2=C(Cl)C(=O)c3ccccc3C2=O)cc1, the “activity change, negative = inhibition” value is reported as “inactive”.
With COc1cccc(NC(=S)NNC(=O)C(C)n2nc(C)c([N+](=O)[O-])c2C)c1 (stereo not given) the “activity change, negative = inhibition” value was “inactive”.
CC1=C(C(=O)OCc2ccccc2)C(c2cccc([N+](=O)[O-])c2)NC(=O)N1C (stereo not given) was tested, and the “activity change, negative = inhibition” value was “inactive”.
In the case of CCOC(=O)c1ccc(NC(=O)C(=O)NCc2ccc(/C=C(/C#N)C(=O)NCCOC)o2)cc1, the “activity change, negative = inhibition” value is reported as “inactive”.
In the case of CCOC(=O)c1cc(-c2ccccc2)sc1NC(=S)Nc1cccc(C)n1, the “activity change, negative = inhibition” value is reported as “inactive”.
In the case of O=c1[nH]nc(CNc2ccc(OC(F)(F)F)cc2)c2ccccc12, the “activity change, negative = inhibition” value is reported as “inactive”.
With COc1cc2c(cc1OC)-c1c(OC)c(OC)cc3c1C(C2)N(C)CC3 (stereo not given) the “activity change, negative = inhibition” value was “inactive”.
In the case of CCCCN(C(=O)c1ccc(C)o1)c1c(N)n(CCCC)c(=O)[nH]c1=O, the “activity change, negative = inhibition” value is reported as “inactive”.
For Cc1ccc(C(=O)N/C(=C\c2ccc(-c3cccc([N+](=O)[O-])c3)o2)C(=O)NCCCN(C)C)cc1, the “activity change, negative = inhibition” value was “inactive”.
With O=c1[nH]cnc2c1C(c1ccccc1)c1c(nc[nH]c1=O)O2 the “activity change, negative = inhibition” value was “inactive”.
In the case of Nc1cc(C(=O)O)c(Oc2ccc(Cl)cc2Cl)cc1C(=O)O, the “activity change, negative = inhibition” value is reported as “inactive”.
With CCCCn1c(N)c(N(CCOC)C(=O)c2ccc(Br)o2)c(=O)[nH]c1=O the “activity change, negative = inhibition” value was “inactive”.
With Cc1ccc(Nc2nc(-c3ccc(C)cc3)c(CC(=O)O)s2)cc1 the “activity change, negative = inhibition” value was “inactive”.
For COc1cc(/C=C2/C(=O)NN(c3ccc(Cl)c(Cl)c3)C2=O)cc([N+](=O)[O-])c1O, the “activity change, negative = inhibition” value was “inactive”.
